Measured values reported in US11977075B2, “Method of predicting personalized response to cancer treatment with immune checkpoint inhibitors, method of treating cancer, and kit therefor” (Rappaport Family Institute for Research in the Medical …, priority 2017, dated 2024).

Experiments:
[1] = test system: EMT6 murine breast carcinoma; test: EMT6 primary breast tumor model, ICI combined with SB-3CT; format: in vivo, BALB/c mice; details: combination with either anti-PD-1 or anti-PD-L1 vs anti-PD-1 or anti-PD-L1 monotherapy
Procedure: Control mice are injected with IgG antibody and vehicle (10% DMSO in normal saline). Mice receiving either anti-PD-1 or anti-PD-L1 monotherapies are also injected with vehicle (10% DMSO in normal saline). Mice receiving SB3-CT monotherapy are also injected with IgG control antibodies. Tumor growth and mouse survival are monitored. At endpoint (when tumors reach a size of ˜1500 mm^3), mice are sacrificed.

cancer patients = details: pooled data from clinical studies; cited from earlier work

For `O=S(=O)(CC1CS1)c1ccc(Oc2ccccc2)cc1` (centres unmarked) [SB-3CT, 2-(((4-phenoxyphenyl)sulfonyl)methyl)thiirane], the increasing survival [1] was “more effective” and the reducing tumor size [1] was “more effective”.

For ipilimumab, the “duration of clinical response” value (cancer patients) is given as “around 3 years”, the “duration of clinical response, can last up to” value (cancer patients) is given as “up to 10 years” and the “subset of patients in which the therapeutic effect is observed” value (cancer patients) is given as about 20%.
